The record followed here is ChEMBL document CHEMBL1781916, “p38alpha mitogen-activated protein kinase inhibitors: optimization of a series of biphenylamides to give a molecule suitable for clinical progression” (J Med Chem, 2009).

By bioavailability is commonly meant the share of a dose that reaches the circulation, judged against a reference dose that is usually intravenous. By clearance is commonly meant the volume of plasma or blood freed of the substance per unit of time. In general, half-life refers to the time in which the quantity being followed falls by half. In general, AUC refers to the area under the concentration-time curve, a measure of exposure. A word on the Vdss: it is a proportionality between amount in the body and measured concentration, not a real space.

Bounds are passed on as bounds.

Series [1] is described as follows: (§1) Oral bioavailability in Lewis rat at 1 mg/kg. Particulars: Lewis, in vivo. The class given is ADME, organism-based.
The test system of series [2] is Rattus norvegicus. Put plainly: (§2) Clearance in Lewis rat at 1 mg/kg, iv. Format: ADME, organism-based. Set-up: dose 1 mg/kg, route intravenous. The following applies: in vivo.
A short description of series [3]: Half life in Lewis rat at 1 mg/kg, iv. The following applies: in vivo. Format: ADME, organism-based. Set-up: dose 1 mg/kg, route intravenous.
Series [4] can be described thus: as §2. Particulars: Lewis, in vivo. Set-up: dose 1 mg/kg, route intravenous. The class given is ADME, organism-based.
Series [5] is described as follows: AUC in Lewis rat 0.25 mg/kg, po. Particulars: Lewis, plasma.
Series [6] in a line: Clearance in Lewis rat at 0.25 mg/kg, iv. The class given is ADME, organism-based. Set-up: dose 0.25 mg/kg, route intravenous. The following applies: in vivo.
Series [7] is described as follows: Half life in Lewis rat at 0.25 mg/kg, iv and 0.25 mg/kg, po. The class given is ADME, organism-based. Particulars: in vivo.
Series [8] can be described thus: Oral bioavailability in Lewis rat at 0.25 mg/kg, po. Format: ADME, organism-based. The following applies: in vivo.
Series [9] relates to Rattus norvegicus. Put plainly: Volume of distribution at steady state in Lewis rat at 1 mg/kg, iv. Set-up: dose 1 mg/kg, route intravenous. The class given is ADME, organism-based. The following applies: in vivo.
Series [10] in a line: Oral bioavailability in cynomolgus monkey at 1.4 mg/kg. Format: ADME, organism-based, Macaca fascicularis. The following applies: in vivo.
Series [11] in a line: Oral bioavailability in mouse. The class given is ADME, organism-based. The following applies: in vivo.
The nature of series [12]: Oral bioavailability in dog. The class given is ADME, organism-based, Canis lupus familiaris. Particulars: in vivo.
The nature of series [13]: Ratio of drug level in brain to plasma in Lewis rat at 1 mg/kg, iv and 1 mg/kg, po. Format: ADME, organism-based. Particulars: read-out: BPR.
Series [14] concerns Rattus norvegicus. The description is as §1. Particulars: in vivo. The class given is ADME, organism-based.
Series [15] relates to Rattus norvegicus. Put plainly: AUC in Lewis rat 0.25 mg/kg, po. The following applies: in vivo.

The compound `Cc1ccc(C(=O)NC2CC2)cc1-c1ccc(C(=O)NCC2CC2)cn1` registered a bioavailability in series [1] of 99%. In the series with Rattus norvegicus [2], this compound gave a clearance of 1.5 mL/min/kg. The half-life in [3] is 3 h.
As for `Cc1c(F)cc(C(=O)NC2CC2)cc1-c1ccc(C(=O)NCC2CC2)cn1`, the bioavailability in series [1] is greater than 95%. The same compound yielded a clearance in series [4] of 2.5 mL/min/kg. The same compound had a half-life in [3] of 1.9 h. For the same compound, the AUC in [5] stood at 810 ng·h/mL.
In [6], `Cc1c(F)cc(C(=O)NC2CC2)cc1-c1ccc(C(=O)NCC(C)C)cn1` gave a clearance of 6.4 mL/min/kg. In series [7], this compound gave a half-life of 1.1 h. Further, in series [8], the bioavailability came out at 56%. The compound also returned an AUC in series [5] of 360 ng·h/mL.
In the case of `Cc1c(F)cc(C(=O)NC2CC2)cc1-c1ccc(C(=O)N[C@H](C)C(C)C)cn1`, the AUC in series [5] was 50 ng·h/mL.
In turn, `Cc1c(F)cc(C(=O)NC2CC2)cc1-c1ccc(C(=O)N[C@@H](C)C(C)C)cn1` came in with an AUC in [5] of 8 ng·h/mL.
`Cc1c(F)cc(C(=O)NC2CC2)cc1-c1ccc(C(=O)N[C@H](C)C(C)(C)C)cn1`: the AUC in [5] turned out to be 23 ng·h/mL.
Turning to `Cc1c(F)cc(C(=O)NC2CC2)cc1-c1ccc(C(=O)N[C@@H](C)C(C)(C)C)cn1`, the AUC in [5] came out at 6 ng·h/mL.
On to `Cc1c(F)cc(C(=O)NC2CC2)cc1-c1ccc(C(=O)NCC(C)(C)C)cn1` [LOSMAPIMOD], for which, in the series with Rattus norvegicus [9], the Vdss is 0.9 L/kg. For the same compound, the bioavailability in [10] was found to be 35%; in series [11] it was 59%; in series [12], 55%; in series [8] it was 51%. The Kp in series [13] was found to be 0.1. Besides, the half-life in series [7] was 1.1 h; in series [3], 1.2 h. Besides, the F in the series with Rattus norvegicus [14] came to 71%. Also, the AUC with Rattus norvegicus [15] is 220 ng·h/mL.
